As usually defined, the IC50 is the point on the concentration scale where inhibition reaches its midpoint. Usually CLint scaled stands for a measure of how fast metabolising enzymes remove a compound, apart from limits set by blood flow. A high value points to rapid turnover. One may read the inhibition as how much of the control response was suppressed. Low readings indicate little suppression, high ones strong suppression.

From US11370794B2, “Toll-like receptor antagonist compounds and methods of use” (Dynavax Technologies Corporation, priority 2016, dated 2022) come the findings set out here.

In one series the target is T1, human TLR9 (Homo sapiens, UniProt Q9NR96).
T1 construct: endogenous in cells; host or cells: primary human B cells (CD19 microbeads) from buffy coats of healthy donors
T1 sequence (Q9NR96 26-1032): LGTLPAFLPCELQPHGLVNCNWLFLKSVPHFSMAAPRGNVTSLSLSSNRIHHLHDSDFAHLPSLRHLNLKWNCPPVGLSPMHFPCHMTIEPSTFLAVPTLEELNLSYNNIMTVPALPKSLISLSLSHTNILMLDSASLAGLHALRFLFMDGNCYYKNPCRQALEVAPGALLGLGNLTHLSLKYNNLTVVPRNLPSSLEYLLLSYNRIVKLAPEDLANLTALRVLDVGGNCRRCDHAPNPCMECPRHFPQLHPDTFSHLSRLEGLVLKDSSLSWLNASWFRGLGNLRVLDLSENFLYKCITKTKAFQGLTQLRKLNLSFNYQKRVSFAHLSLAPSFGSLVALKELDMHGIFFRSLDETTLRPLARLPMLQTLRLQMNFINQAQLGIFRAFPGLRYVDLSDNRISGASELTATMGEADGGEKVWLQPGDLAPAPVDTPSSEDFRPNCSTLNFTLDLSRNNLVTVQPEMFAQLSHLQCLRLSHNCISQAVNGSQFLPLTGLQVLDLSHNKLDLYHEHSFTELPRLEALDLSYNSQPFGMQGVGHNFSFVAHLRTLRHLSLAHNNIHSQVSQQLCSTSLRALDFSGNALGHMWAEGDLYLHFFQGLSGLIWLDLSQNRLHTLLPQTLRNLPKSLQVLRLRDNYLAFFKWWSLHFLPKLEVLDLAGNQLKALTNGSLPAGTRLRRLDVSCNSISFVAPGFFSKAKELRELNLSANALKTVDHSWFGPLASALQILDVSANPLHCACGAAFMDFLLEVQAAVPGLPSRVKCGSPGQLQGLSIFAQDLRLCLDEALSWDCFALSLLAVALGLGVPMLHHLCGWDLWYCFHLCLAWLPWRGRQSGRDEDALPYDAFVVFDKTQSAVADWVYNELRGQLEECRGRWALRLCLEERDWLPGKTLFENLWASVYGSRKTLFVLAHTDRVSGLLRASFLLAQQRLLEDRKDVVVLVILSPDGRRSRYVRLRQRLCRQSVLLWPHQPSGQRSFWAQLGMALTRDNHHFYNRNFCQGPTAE
The experiment in a line: Inhibition of human TLR9 in human B cells (IL-6 ELISA). In kind it is cell-based. The conditions noted are these: for IC50: human B cells, agonist 1018 ISS 1 μM, IL-6 readout, 48 hours, range about 0.01 to 10 μM, read-out: Human TLR9 IC50; for inhibits TLR9-dependent responses (in words): summary statement of the description. Summed up: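 Primary human B cells (CD19-isolated from donor buffy coats), ~300,000 per well, treated with compound (about 0.01–10 μM, some 0.001–30 μM) then 1 μM CpG oligonucleotide 1018 ISS. After 48 hours at 37° C, supernatant IL-6 measured by ELISA; IC50 from concentration-response of TLR9-dependent activity.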
On the technique in general: An ELISA detects its analyte on a solid surface through an enzyme-linked reagent.

The nature of series [1]: Metabolic stability in human liver microsomes. The series is classed as in vitro ADME. The conditions noted are these: 0.5 mg/mL microsomal protein, 1.5 μM compound, 37° C.; for half-life at 1.5 μM: 0-45 minutes, read-out: T1/2 in human liver microsomes. The protocol:
Example B7—Metabolic Stability
The stability of compounds in human liver microsomes was tested. Human liver microsomes (from BD Gentest) were spiked with compounds to a final liver microsomal protein concentration of 0.5 mg/mL and a final compound concentration of 1.5 μM. Samples were incubated for 0, 5, 15, 30, 45 minutes at 37° C. The reaction was stopped by the addition of acetonitrile. An aliquot of the stopped reaction was mixed with ultra-pure water (Millipore, ZMQS50F01) and analyzed by liquid chromatography/electrospray ionization mass spectroscopy.
Background: Liver microsomes are vesicles of endoplasmic reticulum, rich in cytochrome P450 enzymes.

Series [2] in a line: Plasma stability in human plasma. The series is classed as in vitro ADME. The conditions noted are these: plasma (90%); 90% human plasma, 2 μM compound, 37° C., 0-60 minutes; read-out: T1/2 in human plasma. On the procedure: Example B6—Plasma Stability
The stability of compounds in human plasma was tested. Human plasma was spiked with compound to final concentration of 90% plasma and 2 μM compound. Samples were incubated for 0, 5, 15, 30, 45 and 60 minutes at 37° C. The reaction was stopped by the addition of acetonitrile. An aliquot of the stopped reaction was mixed with ultra-pure water (Millipore, ZMQS50F01) and analyzed by liquid chromatography/electrospray ionization mass spectroscopy.

For another series, the target named is T2, TLR-2 (Homo sapiens, UniProt O60603).
T2 construct: related toll-like receptor family members and other nucleic acid intracellular signaling receptors in primary human leukocytes; endogenous in cells; host or cells: primary human leukocytes
T2 sequence (O60603 21-784): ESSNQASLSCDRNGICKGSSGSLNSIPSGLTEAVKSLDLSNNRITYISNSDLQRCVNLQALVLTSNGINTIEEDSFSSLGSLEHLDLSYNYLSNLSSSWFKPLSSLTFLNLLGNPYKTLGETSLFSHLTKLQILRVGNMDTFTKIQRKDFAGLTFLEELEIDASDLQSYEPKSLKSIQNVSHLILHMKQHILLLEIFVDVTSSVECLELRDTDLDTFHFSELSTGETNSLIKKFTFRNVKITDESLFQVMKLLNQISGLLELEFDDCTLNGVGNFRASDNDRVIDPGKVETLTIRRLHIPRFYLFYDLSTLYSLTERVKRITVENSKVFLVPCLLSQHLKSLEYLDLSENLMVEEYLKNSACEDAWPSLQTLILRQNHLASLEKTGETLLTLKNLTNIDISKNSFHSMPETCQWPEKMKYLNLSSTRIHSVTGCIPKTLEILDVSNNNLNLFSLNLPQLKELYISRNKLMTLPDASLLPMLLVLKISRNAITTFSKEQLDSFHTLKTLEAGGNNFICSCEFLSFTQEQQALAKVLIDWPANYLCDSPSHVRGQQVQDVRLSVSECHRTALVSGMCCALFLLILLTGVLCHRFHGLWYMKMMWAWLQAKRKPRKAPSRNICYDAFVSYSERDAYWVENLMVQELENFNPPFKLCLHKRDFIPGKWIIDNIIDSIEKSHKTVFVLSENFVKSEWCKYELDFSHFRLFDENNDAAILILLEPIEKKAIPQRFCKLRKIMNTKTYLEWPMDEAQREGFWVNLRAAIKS
In words: Receptor specificity in primary human leukocytes: TLR-2. The series is classed as cell-based. The protocol: Example B5—Receptor Specificity
Representative compounds were tested for antagonist activity against related toll-like receptor family members and other nucleic acid intracellular signaling receptors in primary human leukocytes. The compounds were Compound Nos. 5 and 9, and they were tested for their ability to inhibit human RIG-I, TLR-2, TLR-4, and TLR-5. With one exception, neither compound was able to inhibit these receptors greater than 50% at 10 μM.

Molecules are shown by their SMILES. A value given as a limit tells only on which side of the number the result lay.

Regarding `Cc1ccc(-n2nc3c(N4CCC(C(=O)NCCCc5c[nH]cn5)CC4)nnc(C)c3c2C)cc1` [Compound No. 6, N-(3-(1H-imidazol-4-yl)propyl)-1-(3,4-dimethyl-2-(p-tolyl)-2H-pyrazolo[3,4-d]pyridazin-7-yl)piperidine-4-carboxamide], at human TLR9, the IC50 amounted to 154 nM.
As for `Cc1ccc(-n2nc3c(N4CCC(C(=O)NC5CN(Cc6ccccc6)C5)CC4)nnc(C)c3c2C)cc1` [Compound No. 4, N-(1-benzylazetidin-3-yl)-1-(3,4-dimethyl-2-(p-tolyl)-2H-pyrazolo[3,4-d]pyridazin-7-yl)piperidine-4-carboxamide], on human TLR9, the IC50 worked out at 93 nM and the “inhibits TLR9-dependent responses (in words)” value is “inhibit”.
With `Cc1ccc(-n2nc3c(N4CCC(C(=O)NCC(C)(C)CNc5ccccc5)CC4)nnc(C)c3c2C)cc1` [2-1], the IC50 at human TLR9 came to 4650 nM.
As for `Cc1ccc(-n2nc3c(N4CCC(C(=O)NCCCN(C)C)CC4)nnc(C)c3c2C)cc1` [Compound No. 5, 1-(3,4-dimethyl-2-(p-tolyl)-2H-pyrazolo[3,4-d]pyridazin-7-yl)-N-(3-(dimethylamino)propyl)piperidine-4-carboxamide], in series [1], the intrinsic metabolic clearance (CLint scaled) at 1.5 μM is 2.2 mL/min/kg and the half-life at 1.5 μM came out at 13.3 h. Further, in series [2], the half-life at 2 μM was found to be 17.9 h. Further, the inhibition at 10 µM against TLR-2 is at most 50%. On human TLR9, the IC50 amounted to 40 nM and the “inhibits TLR9-dependent responses (in words)” value is “inhibit”.
Regarding `Cc1ccc(-n2nc3c(N4CCC(C(=O)N5CCN(Cc6ccccc6)CC5)CC4)nnc(C)c3c2C)cc1` [Compound No. 2, (4-benzylpiperazin-1-yl)(1-(3,4-dimethyl-2-(p-tolyl)-2H-pyrazolo[3,4-d]pyridazin-7-yl)piperidin-4-yl)methanone], at human TLR9, the IC50 came out at 242 nM and the “inhibits TLR9-dependent responses (in words)” value was “inhibit”.
In the case of `Cc1ccc(-n2nc3c(N4CCC(CCC(=O)NCCN(C)C)CC4)nnc(C)c3c2C)cc1` [Compound No. 9, 3-(1-(3,4-dimethyl-2-(p-tolyl)-2H-pyrazolo[3,4-d]pyridazin-7-yl)piperidin-4-yl)-N-(2-(dimethylamino)ethyl)propanamide], on TLR-2, the inhibition at 10 µM is at most 50%. In addition, the IC50 on human TLR9 turned out to be 3 nM.
Regarding `Cc1ccc(-n2nc3c(N4CCC(C(=O)NCCCN(C)Cc5ccccc5)CC4)nnc(C)c3c2C)cc1` [Compound No. 1, N-(3-(benzyl(methyl)amino)propyl)-1-(3,4-dimethyl-2-(p-tolyl)-2H-pyrazolo[3,4-d]pyridazin-7-yl)piperidine-4-carboxamide], in series [1], the CLint scaled at 1.5 μM was found to be 347 mL/min/kg and the half-life at 1.5 μM stood at 0.0833 h. The half-life at 2 μM in series [2] is 3.74 h. Besides, on human TLR9, the IC50 worked out at 40 nM and the “inhibits TLR9-dependent responses (in words)” value was “inhibit”.
In the case of `Cc1ccc(-n2nc3c(N4CCC(C(=O)NC5CN(C)C5)CC4)nnc(C)c3c2C)cc1` [Compound No. 3, 1-(3,4-dimethyl-2-(p-tolyl)-2H-pyrazolo[3,4-d]pyridazin-7-yl)-N-(1-methylazetidin-3-yl)piperidine-4-carboxamide], in series [1], the CLint scaled at 1.5 μM came to 4.5 mL/min/kg and the half-life at 1.5 μM worked out at 6.4 h. In addition, the half-life at 2 μM in series [2] stood at 3.45 h. Besides, on human TLR9, the IC50 came to 143 nM.
